We go through eleven compounds from patent US8592403B2, “Diazepine and diazocane compounds as MC4 agonists” (Pfizer Limited, priority 2008, dated 2013).

pEC50, pKi: −log10 of the molar value.

The nature of series [1]: In vitro metabolism rate determination, human liver microsome (HLM) assay. The format is in vitro ADME. Particulars: human, liver microsomes, read-out: HLM: Clint, app. The text has this:
In Vitro Metabolism Rate Determination (Human Liver Microsome (HLM); Rat Liver Microsome (RLM) Assay)
Many drugs are metabolised by the cytochrome P450 mono-oxygenase system. This enzyme is found in high concentrations in the liver and is bound to the endoplasmic reticulum of the hepatocyte. The enzyme system can be obtained in semi-purified state by the preparation of the hepatic microsomal fractions. Determining a compound's in vitro half-life in such a system provides a useful indicator of metabolic stability.
Methodology for In Vitro Rate Determination Using Hepatic & Supermix Microsomes
The method outlined below is for a total incubation volume of 1.5 ml.
1. The following mixture is prepared in a test tube:
2. Defrost microsomes at room temperature and add sufficient microsomes to give a final concentration of 0.5 nmol cytochrome P450/ml of incubation e.g. for a 1.5 ml incubation, the volume of microsomes to be added is:
3. Add sufficient MilliQ water to give a total incubation volume of 1.425 ml.
6. Add substrate to the incubation. The substrate should be at an initial concentration of 1 μM. The volume of substrate required in the remaining 1.162.5 ml incubation is calculated as follows: […]
8. Pre-incubate the tube containing the incubation mix, also positive control and no cofactor tubes in the thermostatically controlled shaking water bath set at 37° C. for approx 5 min.
9. Add NADP to initiate reaction (75 μl to each 1.162.5 ml incubation mix, 12.5 μl to positive control tube and 5 μl to no substrate tube) and take first time point immediately. The PNA positive control, no cofactor control and no substrate tubes are incubated for the total incubation time.
10. Remove 100 μl aliquots up to 9 different sampling points from 0 to 60 min (usually 0, 3, 5, 10, 15, 20, 30, 45 & 60 min) and terminate reaction. Longer incubation times can be used, but, after 120 min the microsomes deteriorate. The reaction may be terminated by addition of organic solvent, acid or base. At the end of the incubation process the no cofactor and no substrate controls in a similar manner i.e. terminate with the same reagent.
11. Analyse samples (including no cofactor and no substrate control) by a specific assay for the substrate to determine the disappearance kinetics.
Data obtained using the procedure described above can be quantified in terms of the substrates in vitro intrinsic clearance (Clint). Providing that the substrate concentration is below Km, the metabolism should be 1st order giving a log-linear plot of substrate disappearance with time.
The gradient of this line is the first order rate constant (k) for the substrate disappearance and is determined by regression analysis. This rate constant can be converted to the half-life according to the following equation.
Alternatively the rate constant can be converted to an intrinsic clearance (Clint) according to the following equation:— Clint(μl/min/mg)=(k/protein concentration in incubation (mg/ml))*1000
(In general: Liver microsomes are vesicles of endoplasmic reticulum, rich in cytochrome P450 enzymes.)

The next series has as its target MC4 receptor (Homo sapiens, UniProt P32245). The experiment in a line: MC4 EC50 functional potency (protocol E of US2005/0176772 / WO 2005/077935). It is filed as cell-based. The procedure: The compounds of formula (I) of the present invention have utility as MCR4 agonists in the treatment of various disease states.
MC5 and MC4 EC50 activity was determined as described by assay protocols D and E, respectively, in US2005/0176772 (pages 28-30).

The next series has as its target T1, MC3 receptor (MC3R) (Homo sapiens, UniProt P41968).
T1 construct: expressed in transfected cells; host or cells: CHO-CRE MC3R cells (membranes)
Put plainly: Nle4, D-Phe7-α-MSH inhibition at the MC3 receptor (competition binding, SPA, CHO-CRE MC3R membranes). The text has this:
Nle4, D-Phe7-α-MSH Inhibition at the MC3 Receptor
Nle4, D-Phe7-α-MSH is a stable analogue of melanocyte-stimulating hormone (MSH), which is an agonist at the MC3 receptor (MC3R). Compounds can be evaluated for their ability to inhibit Nle4, D-Phe7-α-MSH binding to membranes from cells expressing the MC3R using a competition binding assay versus [^125I] Nle4, D-Phe7-α-MSH.
(§1) Cells expressing the MC3R were subject to homogenisation and the membrane fragment isolated by differential centrifugation. CHO-CRE MC3R cell membranes were coupled to PVT-PEI-WGA SPA Beads type A for 2 hours, spun at 1000 RPM for 5 mins and suspended to a final assay concentration of 800 ug bead/ml (1.2 ug membrane, 40 ug bead per well). Bead/membrane mix was incubated with 0.06 nM [^125I] Nle4, D-Phe7-α-MSH and 11 half-log concentrations of competitor ligand, in duplicate, in a total volume of 50 μl buffer per well (25 mM HEPES, 1 mM MgCl2, 2.5 mM CaCl2, 1% Pluronic F68, 1 complete EDTA protease inhibitor tablet/50 ml pH7). Non-specific binding was determined by the inclusion of 100 nM SHU9119. The reaction was initiated by the addition of bead/membranes and plates were incubated at room temperature for 12 hours (the first hour on a plate shaker), after which the amount of radioactivity present was determined using a Wallac plate counter. Ki values were determined by data analysis using appropriate software.

A further series addresses T2, CYP3A4 (Homo sapiens, UniProt P08684).
T2 construct: utilizes human liver microsomes together with isoform-specific clinical drug probes; from tissue; host or cells: human liver microsomes
The experiment in a line: High density DDI 3 μM cocktail screen in human liver microsomes, midazolam probe. Particulars: human, liver microsomes, probe midazolam, read-out: % inhibition 3A4 @ 3 μM. The format is in vitro ADME. The procedure: High Density Drug-Drug Interactions (DDI) 3 μM Cocktail Screen
A drug interaction is a situation in which a substance affects the activity of another drug, i.e. the effects are increased or decreased, or together they produce a new effect that neither produces on its own. Drug interactions may be the result of various processes but a relatively common one is where one drug affects the pharmacokinetics of another by inhibiting the cytochrome P450 that metabolises it. Because of the importance of these phenomena, assessment of the DDI potential for new chemical entities (NCEs) is considered important early on in the drug discovery process.
The DDI cocktail screen in human liver microsomes (HLM) is run in a fully automated fashion and the aim of the screen is to provide a single-point assessment of the DDI potential of new chemical entity (NCE; tested at […]) against the 4 primary cytochrome P450 enzymes, 1A2, 2D6, 2C9 and 3A4.
The substrate cocktail approach for P450 DDI utilizes human liver microsomes together with isoform-specific clinical drug probes and permits the simultaneous measurement of the inhibition of P450 1A2, 2C9, 2D6 & 3A4 activities in a single incubation. This is run in high throughput with simultaneous detection of metabolites by LC-MS/MS. This method has been thoroughly tested and evaluated using standard compounds.
Appearance of the metabolite of each substrate is measured over time in the presence and absence of the NCE (test compound/inhibitor) at a concentration of 3 μM. The compounds are assessed for their inhibitory potential as a percentage value and interpreted using the following scheme.

In another series the target is T3, MC4 receptor (MC4R) (Homo sapiens, UniProt P32245).
T3 construct: expressed in transfected cells; host or cells: CHO-CRE MC4R cells (membranes)
The experiment in a line: Nle4, D-Phe7-α-MSH inhibition at the MC4 receptor (competition binding, SPA, CHO-CRE MC4R membranes).
Description: Nle4, D-Phe7-α-MSH Inhibition at the MC4 Receptor
Nle4, D-Phe7-α-MSH is a stable analogue of melanocyte-stimulating hormone (MSH), which is an agonist at the MC4 receptor (MC4R). Compounds can be evaluated for their ability to inhibit Nle4, D-Phe7-α-MSH binding to membranes from cells expressing the MC4R using a competition binding assay versus [^125I] Nle4, D-Phe7-α-MSH.
as §1, with “MC4R” for “MC3R”, “min” for “mins”, “a” for “a final assay”, “300” for “800”, “(0.15” for “(1.2”, “15” for “40”

T2 sequence (P08684 whole entry, canonical isoform): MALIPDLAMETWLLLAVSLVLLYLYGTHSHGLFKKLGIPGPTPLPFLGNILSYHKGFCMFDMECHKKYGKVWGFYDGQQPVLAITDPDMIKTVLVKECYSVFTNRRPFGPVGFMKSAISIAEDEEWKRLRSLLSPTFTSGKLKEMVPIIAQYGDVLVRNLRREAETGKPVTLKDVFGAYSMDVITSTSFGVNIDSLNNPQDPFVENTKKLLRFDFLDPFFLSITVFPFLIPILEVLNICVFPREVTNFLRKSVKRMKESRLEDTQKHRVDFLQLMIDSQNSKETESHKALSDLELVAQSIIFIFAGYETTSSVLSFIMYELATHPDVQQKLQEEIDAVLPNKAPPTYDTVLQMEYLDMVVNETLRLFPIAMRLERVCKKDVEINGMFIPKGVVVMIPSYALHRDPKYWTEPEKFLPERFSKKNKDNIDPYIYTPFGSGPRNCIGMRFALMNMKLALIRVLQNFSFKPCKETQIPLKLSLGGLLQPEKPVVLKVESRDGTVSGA
T3 sequence (P32245 whole entry): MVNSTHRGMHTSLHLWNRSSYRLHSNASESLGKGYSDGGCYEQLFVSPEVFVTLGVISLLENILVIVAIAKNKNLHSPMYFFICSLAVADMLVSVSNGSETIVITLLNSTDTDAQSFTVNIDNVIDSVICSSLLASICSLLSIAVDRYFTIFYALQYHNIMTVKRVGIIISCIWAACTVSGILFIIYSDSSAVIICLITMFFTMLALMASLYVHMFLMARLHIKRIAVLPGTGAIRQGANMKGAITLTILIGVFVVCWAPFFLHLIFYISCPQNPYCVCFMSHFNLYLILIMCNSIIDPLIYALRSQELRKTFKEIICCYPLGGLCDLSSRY
Sequence of MC4 receptor (P32245 whole entry): as above
T1 sequence (P41968 whole entry): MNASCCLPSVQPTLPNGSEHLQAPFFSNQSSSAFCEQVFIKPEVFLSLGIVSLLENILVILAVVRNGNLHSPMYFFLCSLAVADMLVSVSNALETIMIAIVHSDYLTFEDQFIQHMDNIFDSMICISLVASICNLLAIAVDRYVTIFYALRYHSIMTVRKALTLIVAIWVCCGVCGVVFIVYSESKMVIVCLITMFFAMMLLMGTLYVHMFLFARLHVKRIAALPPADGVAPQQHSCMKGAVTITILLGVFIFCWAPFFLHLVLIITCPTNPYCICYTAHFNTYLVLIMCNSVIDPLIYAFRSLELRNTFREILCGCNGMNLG

One may read the pEC50 as the negative decadic logarithm of the EC50, by convention in mol/L. Usually pKi stands for −log10 of the Ki, conventionally taken in molar units. As a reminder, the inhibition is the drop in the measured response relative to a control, in per cent. Turning to `COc1cccc(C2CCCN(C(=O)[C@@H]3CN(c4ccc(C#N)nn4)C[C@H]3c3ccc(F)cc3F)CCN2C(C)=O)c1` (mixture of isomers) [Example 4], the microsomal CLint at 1 μM in series [1] is 237 µL/min/mg. For the same compound, the pEC50 at MC4 receptor was 6.84. Further, the negative logarithm of the Ki (pKi) at MC3 receptor (MC3R) is 6.09; at MC4 receptor (MC4R), 6.26. For the same compound, the inhibition at 3 µM at CYP3A4 worked out at 36.5%.

As for `CC(=O)N1CCN(C(=O)[C@@H]2CN(C(C)(C)C)C[C@H]2c2ccc(F)cc2F)CCC[C@H]1c1ccc(Cl)cc1` [Example 8], the microsomal CLint at 1 μM in series [1] amounted to 17 µL/min/mg. Further, on MC4 receptor, the negative logarithm of the EC50 (pEC50) was 7.28. In addition, the negative-log Ki (pKi) was 4.94 at MC3 receptor (MC3R) and 6.00 at MC4 receptor (MC4R). Further, the inhibition at 3 µM on CYP3A4 came out at 23.9%.

Take `COC(=O)N1CCN(C(=O)[C@@H]2CN(c3cccnn3)C[C@H]2c2ccc(F)cc2F)CCC1c1ccccc1` (mixture of isomers) [Example 49]: the microsomal CLint at 1 μM in series [1] was determined as 86 µL/min/mg. This compound also had a pEC50 at MC4 receptor of 7.68. The results for the pKi at MC3 receptor (MC3R) and at MC4 receptor (MC4R) were 5.65 and 6.68, respectively. The inhibition at 3 µM on CYP3A4 stood at 42.5%.

As for `COc1ccc([C@@H]2CN(c3ccc(=O)n(C)n3)C[C@H]2C(=O)N2CCCC(c3ccc(Cl)cc3)N(S(C)(=O)=O)CC2)c(F)c1` (mixture of isomers) [Example 115, 6-[(3S,4R)-3-{[5-(4-chlorophenyl)-4-(methylsulfonyl)-1,4-diazocan-1-yl]carbonyl}-4-(2-fluoro-4-methoxyphenyl)pyrrolidin-1-yl]-2-methylpyridazin-3(2H)-one], the microsomal CLint at 1 μM in series [1] came to 22.7 µL/min/mg. This compound also gave a negative logarithm of the EC50 (pEC50) at MC4 receptor of 7.80. Also, the figures for the pKi on MC3 receptor (MC3R) and on MC4 receptor (MC4R) were 5.96 and 7.27, respectively. For the same compound, on CYP3A4, the inhibition at 3 µM came out at 58.2%.

For the compound `CC(=O)N1CCN(C(=O)[C@@H]2CN(c3ccc(C#N)nn3)C[C@H]2c2ccc(F)cc2F)CCCC1c1ccccc1F` (mixture of isomers) [Example 2], the microsomal CLint at 1 μM in series [1] stood at 39 µL/min/mg. This compound had a pEC50 at MC4 receptor of 7.72. Moreover, the figures for the pKi on MC3 receptor (MC3R) and on MC4 receptor (MC4R) were 6.43 and 6.57, respectively. In addition, at CYP3A4, the inhibition at 3 µM came out at 60%.

As to `CCCC(=O)N1CCN(C(=O)[C@@H]2CN(C(C)(C)C)C[C@H]2c2ccc(F)cc2F)CCC[C@H]1c1ccc(Cl)cc1` [Example 13], the microsomal CLint at 1 μM in series [1] turned out to be 37.8 µL/min/mg. For the same compound, at MC4 receptor, the pEC50 was 7.86. For the same compound, the values for the pKi on MC3 receptor (MC3R) and at MC4 receptor (MC4R) were 5.30 and 6.44, respectively. For the same compound, the inhibition at 3 µM on CYP3A4 was determined as 48.8%.

In the case of `COC(=O)N1CCN(C(=O)[C@@H]2CN(C(C)(C)C)C[C@H]2c2ccc(F)cc2F)CCCC1c1ccc(Cl)cc1` (mixture of isomers) [Example 83], in series [1], the microsomal CLint at 1 μM worked out at 23 µL/min/mg. In addition, the pEC50 at MC4 receptor is 7.49. Also, the pKi at MC3 receptor (MC3R) is 5.09; on MC4 receptor (MC4R), 5.77. Besides, on CYP3A4, the inhibition at 3 µM was determined as 29%.

`COc1ccc([C@@H]2CN(C(C)(C)C)C[C@H]2C(=O)N2CCC[C@@H](c3ccc(Cl)cc3)N(C(=O)C3CC(F)(F)C3)CC2)c(F)c1` [Example 62]: the negative-log EC50 (pEC50) on MC4 receptor was 7.74. Besides, the inhibition at 3 µM at CYP3A4 was 0%. Moreover, on MC4 receptor (MC4R), the negative logarithm of the Ki (pKi) was 5.44.

With `CC1(C(=O)N2CCN(C(=O)[C@@H]3CN(C(C)(C)C)C[C@H]3c3ccc(F)cc3F)CCC[C@H]2c2ccc(Cl)cc2)CC1` [Example 60, 1-{[(3S,4R)-1-tert-butyl-4-(2,4-difluorophenyl)pyrrolidin-3-yl]carbonyl}-5S-(4-chlorophenyl)-4-(1-methylcyclopropylcarbonyl)-1,4-diazocane], in series [1], the microsomal CLint at 1 μM worked out at 31.1 µL/min/mg. Also, the pEC50 on MC4 receptor was 8.32. Besides, the inhibition at 3 µM at CYP3A4 is 44.9%. At MC4 receptor (MC4R), this compound showed a pKi of 7.04.

As to `CS(=O)(=O)N1CCN(C(=O)[C@@H]2CN(c3ccc(C#N)nn3)C[C@H]2c2ccc(C#N)cc2)CCCC1c1ccc(Cl)cc1` (mixture of isomers) [Example 87], the pEC50 on MC4 receptor is 6.77. Also, the pKi at MC3 receptor (MC3R) is 5.67; on MC4 receptor (MC4R), 6.03. Also, on CYP3A4, the inhibition at 3 µM is 50%.

`COc1ccc([C@@H]2CN(c3cccnn3)C[C@H]2C(=O)N2CCC(c3ccc(Cl)cc3)N(S(C)(=O)=O)CC2)c(F)c1` (mixture of isomers) [Example 94]: the microsomal CLint at 1 μM in series [1] amounted to 78.1 µL/min/mg. Besides, the pEC50 at MC4 receptor was 7.59. On MC3 receptor (MC3R), this compound gave a pKi of 5.17. Moreover, the inhibition at 3 µM at CYP3A4 stood at 46.6%.
